Earlier results, collected in publication PMC9516332 (Frontiers in Oncology, 2022).
Like-named read-outs stand apart in the source and are kept apart here.

Experiments:
Details in all cases: cited from earlier work
[1] = molecular target: T1, panel of 255 wild-type kinases (Homo sapiens, UniProt P54753)
T1 sequence (P54753 34-998): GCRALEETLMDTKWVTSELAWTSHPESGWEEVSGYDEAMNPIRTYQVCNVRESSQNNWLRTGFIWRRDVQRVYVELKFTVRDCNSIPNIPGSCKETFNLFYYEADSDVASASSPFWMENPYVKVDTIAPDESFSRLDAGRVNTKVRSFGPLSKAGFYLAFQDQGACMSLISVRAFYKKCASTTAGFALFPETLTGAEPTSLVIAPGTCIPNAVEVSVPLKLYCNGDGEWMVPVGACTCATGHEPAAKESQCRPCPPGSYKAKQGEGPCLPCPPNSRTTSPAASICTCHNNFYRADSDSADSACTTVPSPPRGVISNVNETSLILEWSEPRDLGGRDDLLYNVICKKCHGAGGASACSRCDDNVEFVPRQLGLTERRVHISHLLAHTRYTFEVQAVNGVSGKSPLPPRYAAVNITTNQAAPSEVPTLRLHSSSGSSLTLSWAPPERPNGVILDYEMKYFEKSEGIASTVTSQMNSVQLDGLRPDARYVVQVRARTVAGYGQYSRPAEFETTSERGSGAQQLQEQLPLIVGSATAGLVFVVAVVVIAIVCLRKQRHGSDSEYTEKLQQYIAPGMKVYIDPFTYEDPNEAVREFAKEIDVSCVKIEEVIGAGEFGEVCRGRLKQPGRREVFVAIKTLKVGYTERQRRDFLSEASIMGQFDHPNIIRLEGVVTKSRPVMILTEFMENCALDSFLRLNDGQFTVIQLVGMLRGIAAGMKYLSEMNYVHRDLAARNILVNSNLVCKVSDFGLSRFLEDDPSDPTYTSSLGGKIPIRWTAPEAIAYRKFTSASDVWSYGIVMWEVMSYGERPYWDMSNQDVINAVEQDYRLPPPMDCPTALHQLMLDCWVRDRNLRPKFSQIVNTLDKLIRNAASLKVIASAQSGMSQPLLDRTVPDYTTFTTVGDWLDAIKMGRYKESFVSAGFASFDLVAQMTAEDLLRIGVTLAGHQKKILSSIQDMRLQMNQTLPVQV

[2] = molecular target: T2, panel of 255 wild-type kinases (Homo sapiens, UniProt P41743)
T2 sequence (P41743 1-596): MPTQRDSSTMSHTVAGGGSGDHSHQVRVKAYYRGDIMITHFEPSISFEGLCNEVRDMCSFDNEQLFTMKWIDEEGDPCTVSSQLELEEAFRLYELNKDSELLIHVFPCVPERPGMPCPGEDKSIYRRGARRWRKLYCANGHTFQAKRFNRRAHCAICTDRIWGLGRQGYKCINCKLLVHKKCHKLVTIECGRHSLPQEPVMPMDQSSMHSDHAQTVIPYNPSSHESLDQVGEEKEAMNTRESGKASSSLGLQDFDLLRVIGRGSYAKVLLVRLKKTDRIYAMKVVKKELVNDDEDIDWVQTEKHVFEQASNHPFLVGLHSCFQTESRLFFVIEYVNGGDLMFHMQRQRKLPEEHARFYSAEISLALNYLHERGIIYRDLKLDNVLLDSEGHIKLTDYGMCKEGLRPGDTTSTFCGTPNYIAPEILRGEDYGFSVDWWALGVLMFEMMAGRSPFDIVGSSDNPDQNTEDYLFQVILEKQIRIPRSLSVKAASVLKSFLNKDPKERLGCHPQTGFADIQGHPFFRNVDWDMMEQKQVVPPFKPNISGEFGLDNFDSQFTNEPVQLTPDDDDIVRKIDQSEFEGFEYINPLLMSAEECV

[3] = molecular target: panel of 255 wild-type kinases (Homo sapiens, UniProt Q07912)
[4] = molecular target: panel of 255 wild-type kinases (Homo sapiens, UniProt Q02763)
[5] = molecular target: panel of 255 wild-type kinases (Homo sapiens, UniProt P17948)
[6] = molecular target: panel of 255 wild-type kinases (Homo sapiens, UniProt Q8TDX7)
[7] = molecular target: panel of 255 wild-type kinases (Homo sapiens, UniProt Q5VT25)
[8] = molecular target: panel of 255 wild-type kinases (Homo sapiens, UniProt Q9P286)
[9] = kinase EPHB3, 1 µmol/L single concentration, ref DOI: 10.1158/1535-7163.MCT-18-0877
[10] = kinase PKCι, 1 µmol/L single concentration, ref DOI: 10.1158/1535-7163.MCT-18-0877
[11] = ACK kinase assay, 1 µmol/L single concentration, ref DOI: 10.1158/1535-7163.MCT-18-0877
[12] = kinase TIE2, 1 µmol/L single concentration, ref DOI: 10.1158/1535-7163.MCT-18-0877
[13] = kinase FLT1, 1 µmol/L single concentration, ref DOI: 10.1158/1535-7163.MCT-18-0877
[14] = NEK7, 1 µmol/L single concentration, ref DOI: 10.1158/1535-7163.MCT-18-0877
[15] = MRCKα, 1 µmol/L single concentration, ref DOI: 10.1158/1535-7163.MCT-18-0877
[16] = PAK5, 1 µmol/L single concentration, ref DOI: 10.1158/1535-7163.MCT-18-0877
[17] = kinase EPHB3, 1 µmol/L single concentration, ref DOI: 10.1371/journal.pone.0092146
[18] = kinase PKCι, 1 µmol/L single concentration, ref DOI: 10.1371/journal.pone.0092146
[19] = ACK kinase assay, 1 µmol/L single concentration, ref DOI: 10.1371/journal.pone.0092146
[20] = kinase TIE2, 1 µmol/L single concentration, ref DOI: 10.1371/journal.pone.0092146
[21] = kinase FLT1, 1 µmol/L single concentration, ref DOI: 10.1371/journal.pone.0092146
[22] = NEK7, 1 µmol/L single concentration, ref DOI: 10.1371/journal.pone.0092146
[23] = MRCKα, 1 µmol/L single concentration, ref DOI: 10.1371/journal.pone.0092146
[24] = PAK5, 1 µmol/L single concentration, ref DOI: 10.1371/journal.pone.0092146

CC#CC(=O)N1CCC[C@H]1c1nc(-c2ccc(C(=O)Nc3ccccn3)cc2)c2c(N)nccn12 [acalabrutinib]
%-inhibition at 1 µmol/L, EPHB3 [1, 9]: 1.64%
%-inhibition at 1 µmol/L, PKCι [2, 10]: -8%
%-inhibition ACK [3, 11]: 14%
%-inhibition at 1 µmol/L, TIE2 [4, 12]: -5.36%
%-inhibition at 1 µmol/L, FLT1 [5, 13]: -1.14%
%-inhibition, NEK7 [6, 14]: -11%
%-inhibition, MRCKα [7, 15]: -7.47%
%-inhibition, PAK5 [8, 16]: -0.37%

CCc1cc2c(cc1N1CCC(N3CCOCC3)CC1)C(C)(C)c1[nH]c3cc(C#N)ccc3c1C2=O [alectinib]
%-inhibition at 1 µmol/L, EPHB3 [1, 9]: 2%
%-inhibition at 1 µmol/L, PKCι [2, 10]: 11%
%-inhibition ACK [3, 11]: 42%
%-inhibition at 1 µmol/L, TIE2 [4, 12]: 2%
%-inhibition at 1 µmol/L, FLT1 [5, 13]: 2.23%
%-inhibition, NEK7 [6, 14]: -1.33%
%-inhibition, MRCKα [7, 15]: -0.84%
%-inhibition, PAK5 [8, 16]: 8%

COc1cc(N2CCC(N3CCN(C)CC3)CC2)ccc1Nc1ncc(Cl)c(Nc2ccccc2P(C)(C)=O)n1 [brigatinib]
%-inhibition at 1 µmol/L, EPHB3 [1]: 0.727%
%-inhibition at 1 µmol/L, PKCι [2]: -38%
%-inhibition ACK [3]: 104%
%-inhibition at 1 µmol/L, TIE2 [4]: 75%
%-inhibition at 1 µmol/L, FLT1 [5]: 74%
%-inhibition, NEK7 [6]: 1.23%
%-inhibition, MRCKα [7]: 18%
%-inhibition, PAK5 [8]: 82%

Cc1cc(Nc2ncc(Cl)c(Nc3ccccc3S(=O)(=O)C(C)C)n2)c(OC(C)C)cc1C1CCNCC1 [ceritinib]
%-inhibition at 1 µmol/L, EPHB3 [1, 9]: -1%
%-inhibition at 1 µmol/L, PKCι [2, 10]: 25%
%-inhibition ACK [3, 11]: 103%
%-inhibition at 1 µmol/L, TIE2 [4, 12]: -13%
%-inhibition at 1 µmol/L, FLT1 [5, 13]: 16%
%-inhibition, NEK7 [6, 14]: -0.251%
%-inhibition, MRCKα [7, 15]: 1.61%
%-inhibition, PAK5 [8, 16]: 15%

O=C(c1ccc(F)c(F)c1Nc1ccc(I)cc1F)N1CC(O)([C@@H]2CCCCN2)C1 [cobimetinib]
%-inhibition at 1 µmol/L, EPHB3 [1, 9]: 0.898%
%-inhibition at 1 µmol/L, PKCι [2, 10]: 2.45%
%-inhibition ACK [3, 11]: 7%
%-inhibition at 1 µmol/L, TIE2 [4, 12]: 19%
%-inhibition at 1 µmol/L, FLT1 [5, 13]: -0.349%
%-inhibition, NEK7 [6, 14]: 1.68%
%-inhibition, MRCKα [7, 15]: -7%
%-inhibition, PAK5 [8, 16]: 0.678%

C[C@@H](Oc1cc(-c2cnn(C3CCNCC3)c2)cnc1N)c1c(Cl)ccc(F)c1Cl [crizotinib]
%-inhibition at 1 µmol/L, EPHB3 [1, 17]: 5%
%-inhibition at 1 µmol/L, PKCι [2, 18]: -5%
%-inhibition ACK [3, 19]: 56%
%-inhibition at 1 µmol/L, TIE2 [4, 20]: 83%
%-inhibition at 1 µmol/L, FLT1 [5, 21]: 53%
%-inhibition, NEK7 [6, 22]: -5.3%
%-inhibition, MRCKα [7, 23]: -8%
%-inhibition, PAK5 [8, 24]: 7%

CC(C)(C)c1nc(-c2cccc(NS(=O)(=O)c3c(F)cccc3F)c2F)c(-c2ccnc(N)n2)s1 [dabrafenib]
%-inhibition at 1 µmol/L, EPHB3 [1, 17]: 3%
%-inhibition at 1 µmol/L, PKCι [2, 18]: 14%
%-inhibition ACK [3, 19]: 24%
%-inhibition at 1 µmol/L, TIE2 [4, 20]: 81%
%-inhibition at 1 µmol/L, FLT1 [5, 21]: 62%
%-inhibition, NEK7 [6, 22]: 2.28%
%-inhibition, MRCKα [7, 23]: -1.84%
%-inhibition, PAK5 [8, 24]: 21%

C=CC(=O)N1CCC[C@@H](n2nc(-c3ccc(Oc4ccccc4)cc3)c3c(N)ncnc32)C1 [ibrutinib]
%-inhibition at 1 µmol/L, EPHB3 [1, 9]: 3%
%-inhibition at 1 µmol/L, PKCι [2, 10]: 2.23%
%-inhibition ACK [3, 11]: 73%
%-inhibition at 1 µmol/L, TIE2 [4, 12]: 29%
%-inhibition at 1 µmol/L, FLT1 [5, 13]: 73%
%-inhibition, NEK7 [6, 14]: 0.69%
%-inhibition, MRCKα [7, 15]: -0.621%
%-inhibition, PAK5 [8, 16]: 12%
